From patent US8198317B2, “Methylenedioxy phenolic compounds and their use to treat disease” (The Ohio State University Research Foundation, priority 2008, dated 2012)
“Also recorded” adds a separate entry of the source.

Columns and labels:
Assay type in all cases: in vivo, rabbit
[1] = tested on: thoracic aorta of New Zealand White rabbits; assay: Myograph experiments on thoracic aortic rings of NZW rabbits; conditions: NZW thoracic aorta, end of 12 weeks
Method: (§1) Animal Model: 15 male New Zealand White rabbits (Charles River, Mass.) were fed with high fat diet (HFD) (Harlan Teklad rabbit diet with 0.5% cholesterol, TD 87251). After 4 weeks of high fat diet, rabbits were randomized into three different treatment groups, normal control (n=5), lipoic acid (100 mg/kg/day) (n=5), INV 70-65 (100 mg/kg/day) (n=5). These drugs were administered to the animals via their chow by mixing the drugs with the high fat diet. A fixed amount of chow and drugs admixed in the chow were fed to all animals every day after carefully calculating food intake in each rabbit. Drugs were dissolved in 100% ethanol and sprayed onto the diet and kept under vacuum to let ethanol evaporate overnight. Two (2) weeks after drug or control admixed HFD, all rabbits underwent aortic balloon denudation surgeries followed by 12 weeks of continued administration of drug or controls admixed with HFD. FIG. 29 provides an outline of the experimental design.
Rabbits were euthanized by injection of lethal doses of pentobarbital. The thoracic aortas were collected for the myograph studies. Two (2) mm thoracic aortic rings were suspended in individual organ chambers filled with physiological salt solution buffer (sodium chloride, 130 mEq/L; potassium chloride, 4.7 mEq/L; calcium dichloride, 1.6 mEq/L; magnesium sulfate, 1.17 mEq/L; potassium diphosphate, 1.18 mEq/L; sodium bicarbonate, 14.9 mEq/L; EDTA, 0.026 mEq/L; and glucose, 99.1 mg/dL [5.5 mmol/L]; pH, 7.4), aerated continuously with 5% carbon dioxide in oxygen at 37° C. Vessels were allowed to equilibrate for at least 1 hour at a resting tension of 30 mN before being subjected to graded doses of agonists. The vasoconstrictor agonist phenylephrine (PE) was used and responses were expressed as a percentage of the peak response to 120 mEq/L of potassium chloride. The vessels subjected to PE were washed thoroughly and allowed to equilibrate for 1 hour before beginning experiments with acetylcholine or sodium nitroprusside (SNP). […] Results for the vasodilators were expressed as a percentage of pre-contraction by PE (0.1 μM).

[2] = tested on: New Zealand White rabbits; assay: Plasma lipid profile in NZW rabbits; conditions: end of treatment
Method: as §1
A lipid profile (Cholesterol, Triglycerides, direct HDL, LDL and VLDL) was performed after a total of 12 weeks of treatment with the drugs. One (1) ml of blood from the ear lobe vein was placed into tubes containing K EDTA at the beginning of the high cholesterol diet and again at the time of sacrifice. All values were expressed as mean±SD. The bar graph of each group both at the baseline and the end point measurement is presented. The statistical analysis was done with one way ANOVA.

[3] = tested on: New Zealand White rabbits; assay: Oil Red O staining of abdominal aorta of NZW rabbits; conditions: NZW abdominal aorta
Method: as §1
Hypercholesterolemia and oxidative stress play an important role in the development of atherosclerosis. The rabbits were sacrificed and abdominal aortas were fixed in 4% PFA (paraformaldehyde). The lipid deposition in the aortic wall was then visualized by oil red staining.

[4] = tested on: New Zealand White rabbits; assay: MRI assessment of atherosclerosis in balloon denuded NZW rabbits; conditions: high fat diet, 100 mg/kg/day, 12 weeks
Method: as §1
MRI experiments were conducted at two time points: 1 week and 12 weeks after the balloon denudation procedure (FIG. 29). […] MR images were analyzed using a Siemens Leonardo Workstation (Siemens Healthcare Inc. Germany).
To assess the different rates of atherosclerosis plaque progression for each rabbit group, the aortic wall was identified in the pre-contrast images at both MRI time points. […] To account for the variable number of slices, for each rabbit a normalized aortic wall volume was calculated.
To assess plaque neovasculature progression in the different treatment groups, only the 12 weeks post balloon denudation MR images were used. […] The signal to noise ratio (SNR) for each slice was calculated as the mean signal obtained from the vessel wall divided by the standard deviation of the noise from a region outside the body. A ratio of the SNR enhancement for each rabbit was obtained by dividing the post and pre contrast calculated SNRs.

O=C(O)CCCC[C@@H]1CCSS1 (racemic) [Lipoic Acid, lipoic acid, reference compound]
Ach LogEC50 [1]: −6.47 ± 0.18 M | PE LogEC50 [1]: −6.48 ± 0.09 M | SNP-1 LogEC50 [1]: −6.75 ± 0.21 M | PE Maximum Effect ([1]; % of peak response to KCl): 154.0 ± 7.24% | Ach Maximum Effect ([1]; % of pre-contraction by PE): −33.00 ± 2.94 % | Insulin Maximum Effect ([1]; % of pre-contraction by PE): −107.8 ± 7.68% | SNP-1 Maximum Effect ([1]; % of pre-contraction by PE): −89.04 ± 7.67% | HDL levels [2]: increased moderately | LDL level compared to normal control [2]: moderate decreases; also recorded: lower | TC level compared to normal control [2]: moderate decreases | VLDL levels compared to controls [2]: no change | triglyceride (TG) levels compared to controls [2]: significantly decreased | lipid content in the plaque area (Oil Red O) compared to the control group [3]: reduction | plaque burden by MRI [4]: no difference
